Reference: ChEMBL document CHEMBL1909046, “DrugMatrix in vitro pharmacology data”

Experiments:
[1] = target: Epidermal growth factor receptor (Homo sapiens, UniProt P00533); assay: DRUGMATRIX: Protein Tyrosine Kinase, EGF Receptor enzyme inhibition (substrate: Poly(Glu:Tyr)); type: cell-based, Insect cells; conditions: Not Active = under 50% inhibition at 10 µM
[2] = target: T1, Alpha-1D adrenergic receptor (Homo sapiens, UniProt P25100); type: cell membranes, HEK293, Membrane; conditions: for Ki: read-out: Ki; as to all read-outs here: in other assays of this panel Not Active means under 50% inhibition at 10 µM
T1 sequence (P25100 whole entry): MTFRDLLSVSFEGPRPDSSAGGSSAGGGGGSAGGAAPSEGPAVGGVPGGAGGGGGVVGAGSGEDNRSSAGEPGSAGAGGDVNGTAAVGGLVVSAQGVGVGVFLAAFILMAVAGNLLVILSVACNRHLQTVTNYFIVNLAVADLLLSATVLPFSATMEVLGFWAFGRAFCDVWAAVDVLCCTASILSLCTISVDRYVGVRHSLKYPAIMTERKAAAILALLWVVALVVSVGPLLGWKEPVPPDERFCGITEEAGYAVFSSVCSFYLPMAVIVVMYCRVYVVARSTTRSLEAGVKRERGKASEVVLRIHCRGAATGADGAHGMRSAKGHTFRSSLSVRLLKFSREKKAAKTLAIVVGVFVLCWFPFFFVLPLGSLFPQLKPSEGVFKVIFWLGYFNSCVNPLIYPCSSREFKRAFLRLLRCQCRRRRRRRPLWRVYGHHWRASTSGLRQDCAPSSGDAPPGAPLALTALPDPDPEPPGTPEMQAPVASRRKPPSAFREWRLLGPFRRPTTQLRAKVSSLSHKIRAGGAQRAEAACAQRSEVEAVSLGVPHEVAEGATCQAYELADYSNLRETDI

[3] = target: Melanocortin receptor 3 (Homo sapiens, UniProt P41968); type: cell membranes, HEK293, Membrane; also: in other assays of this panel Not Active means under 50% inhibition at 10 µM
[4] = target: T2, Nitric oxide synthase, inducible (Mus musculus, UniProt P29477); parameters: species or system Escherichia coli;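 also: inhibition of iNOS enzyme activity measured with L-arginine as substrate; in other assays of this panel Not Active means under 50% inhibition at 10 µM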
T2 sequence (P29477 whole entry): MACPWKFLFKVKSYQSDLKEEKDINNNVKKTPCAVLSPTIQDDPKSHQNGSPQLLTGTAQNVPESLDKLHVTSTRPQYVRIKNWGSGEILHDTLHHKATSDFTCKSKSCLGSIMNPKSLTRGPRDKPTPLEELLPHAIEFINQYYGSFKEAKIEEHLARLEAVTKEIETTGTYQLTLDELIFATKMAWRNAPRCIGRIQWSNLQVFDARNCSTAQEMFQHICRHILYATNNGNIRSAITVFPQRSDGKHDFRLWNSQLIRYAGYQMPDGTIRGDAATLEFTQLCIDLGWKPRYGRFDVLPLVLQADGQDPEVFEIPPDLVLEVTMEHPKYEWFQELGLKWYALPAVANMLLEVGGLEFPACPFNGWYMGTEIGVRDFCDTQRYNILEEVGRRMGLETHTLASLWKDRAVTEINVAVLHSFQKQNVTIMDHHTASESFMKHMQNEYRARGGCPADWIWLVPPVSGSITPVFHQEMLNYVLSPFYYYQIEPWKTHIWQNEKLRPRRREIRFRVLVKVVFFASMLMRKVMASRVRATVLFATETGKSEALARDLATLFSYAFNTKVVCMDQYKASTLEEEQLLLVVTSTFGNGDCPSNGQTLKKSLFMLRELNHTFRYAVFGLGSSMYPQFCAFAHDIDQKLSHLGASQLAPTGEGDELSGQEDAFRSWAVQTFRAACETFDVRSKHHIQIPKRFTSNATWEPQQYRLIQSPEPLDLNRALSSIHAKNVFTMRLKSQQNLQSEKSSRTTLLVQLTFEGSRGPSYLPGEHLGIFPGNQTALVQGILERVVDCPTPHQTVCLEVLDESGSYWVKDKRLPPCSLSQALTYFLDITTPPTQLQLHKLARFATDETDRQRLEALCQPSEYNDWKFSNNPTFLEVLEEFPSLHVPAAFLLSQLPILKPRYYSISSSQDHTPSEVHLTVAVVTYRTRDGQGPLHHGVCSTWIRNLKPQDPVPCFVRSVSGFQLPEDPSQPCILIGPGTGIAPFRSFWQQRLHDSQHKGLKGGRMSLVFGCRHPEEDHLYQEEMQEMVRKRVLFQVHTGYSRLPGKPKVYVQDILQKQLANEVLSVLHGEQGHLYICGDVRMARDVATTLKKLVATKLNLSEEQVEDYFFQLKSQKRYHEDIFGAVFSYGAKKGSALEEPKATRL

[5] = target: T3, Thromboxane-A synthase (Homo sapiens, UniProt P24557); assay: biochemical; type: tissue-based, Platelet;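 also: enzyme inhibition assay with PGH2 supplied as substrate; in other assays of this panel Not Active means under 50% inhibition at 10 µM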
T3 sequence (P24557 whole entry): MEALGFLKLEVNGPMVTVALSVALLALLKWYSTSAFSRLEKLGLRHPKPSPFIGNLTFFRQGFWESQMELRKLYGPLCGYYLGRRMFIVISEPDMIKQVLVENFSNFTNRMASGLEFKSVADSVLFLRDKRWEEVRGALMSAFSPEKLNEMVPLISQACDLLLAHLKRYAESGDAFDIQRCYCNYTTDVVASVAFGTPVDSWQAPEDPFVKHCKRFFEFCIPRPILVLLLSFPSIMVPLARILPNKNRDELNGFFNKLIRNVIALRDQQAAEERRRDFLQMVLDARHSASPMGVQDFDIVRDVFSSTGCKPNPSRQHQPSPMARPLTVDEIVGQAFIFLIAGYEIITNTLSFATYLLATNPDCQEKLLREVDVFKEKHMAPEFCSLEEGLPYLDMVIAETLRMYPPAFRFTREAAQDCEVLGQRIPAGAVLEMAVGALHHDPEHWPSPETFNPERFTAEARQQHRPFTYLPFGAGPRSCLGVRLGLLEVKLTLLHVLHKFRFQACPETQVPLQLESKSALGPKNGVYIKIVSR

[6] = target: Sodium-dependent dopamine transporter (Homo sapiens, UniProt Q01959); assay: DRUGMATRIX: Dopamine Transporter radioligand binding (ligand: [125I] RTI-55); type: cell membranes, CHO-K1, Membrane; conditions: Not Active = under 50% inhibition at 10 µM; for Ki: read-out: Ki
Chain of Sodium-dependent dopamine transporter (Q01959 whole entry): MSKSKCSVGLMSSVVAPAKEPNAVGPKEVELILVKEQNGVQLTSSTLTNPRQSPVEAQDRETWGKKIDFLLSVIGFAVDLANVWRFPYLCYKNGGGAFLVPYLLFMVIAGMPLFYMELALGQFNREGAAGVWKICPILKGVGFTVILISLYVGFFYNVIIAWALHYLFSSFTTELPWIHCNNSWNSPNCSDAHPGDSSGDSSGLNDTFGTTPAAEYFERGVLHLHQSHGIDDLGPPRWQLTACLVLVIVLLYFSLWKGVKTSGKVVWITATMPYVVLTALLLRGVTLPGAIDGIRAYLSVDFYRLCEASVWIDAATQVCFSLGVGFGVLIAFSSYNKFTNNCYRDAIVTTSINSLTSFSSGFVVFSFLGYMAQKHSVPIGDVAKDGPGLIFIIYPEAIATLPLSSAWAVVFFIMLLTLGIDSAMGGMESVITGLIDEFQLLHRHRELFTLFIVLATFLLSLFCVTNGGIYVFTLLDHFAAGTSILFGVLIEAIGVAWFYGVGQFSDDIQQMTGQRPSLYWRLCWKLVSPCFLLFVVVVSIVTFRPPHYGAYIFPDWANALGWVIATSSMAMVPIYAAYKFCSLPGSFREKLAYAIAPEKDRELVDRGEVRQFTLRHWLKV

Chain of Melanocortin receptor 3 (P41968 whole entry): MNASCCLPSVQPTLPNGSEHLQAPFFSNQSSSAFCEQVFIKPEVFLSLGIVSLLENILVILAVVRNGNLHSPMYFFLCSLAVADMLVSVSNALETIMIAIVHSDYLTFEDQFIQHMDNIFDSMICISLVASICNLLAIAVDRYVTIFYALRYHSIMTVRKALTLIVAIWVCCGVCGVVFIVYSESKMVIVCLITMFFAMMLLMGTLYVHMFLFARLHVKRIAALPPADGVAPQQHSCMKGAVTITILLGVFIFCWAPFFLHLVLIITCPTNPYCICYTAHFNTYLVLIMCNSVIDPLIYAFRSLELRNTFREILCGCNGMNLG
Chain of Epidermal growth factor receptor (P00533 whole entry): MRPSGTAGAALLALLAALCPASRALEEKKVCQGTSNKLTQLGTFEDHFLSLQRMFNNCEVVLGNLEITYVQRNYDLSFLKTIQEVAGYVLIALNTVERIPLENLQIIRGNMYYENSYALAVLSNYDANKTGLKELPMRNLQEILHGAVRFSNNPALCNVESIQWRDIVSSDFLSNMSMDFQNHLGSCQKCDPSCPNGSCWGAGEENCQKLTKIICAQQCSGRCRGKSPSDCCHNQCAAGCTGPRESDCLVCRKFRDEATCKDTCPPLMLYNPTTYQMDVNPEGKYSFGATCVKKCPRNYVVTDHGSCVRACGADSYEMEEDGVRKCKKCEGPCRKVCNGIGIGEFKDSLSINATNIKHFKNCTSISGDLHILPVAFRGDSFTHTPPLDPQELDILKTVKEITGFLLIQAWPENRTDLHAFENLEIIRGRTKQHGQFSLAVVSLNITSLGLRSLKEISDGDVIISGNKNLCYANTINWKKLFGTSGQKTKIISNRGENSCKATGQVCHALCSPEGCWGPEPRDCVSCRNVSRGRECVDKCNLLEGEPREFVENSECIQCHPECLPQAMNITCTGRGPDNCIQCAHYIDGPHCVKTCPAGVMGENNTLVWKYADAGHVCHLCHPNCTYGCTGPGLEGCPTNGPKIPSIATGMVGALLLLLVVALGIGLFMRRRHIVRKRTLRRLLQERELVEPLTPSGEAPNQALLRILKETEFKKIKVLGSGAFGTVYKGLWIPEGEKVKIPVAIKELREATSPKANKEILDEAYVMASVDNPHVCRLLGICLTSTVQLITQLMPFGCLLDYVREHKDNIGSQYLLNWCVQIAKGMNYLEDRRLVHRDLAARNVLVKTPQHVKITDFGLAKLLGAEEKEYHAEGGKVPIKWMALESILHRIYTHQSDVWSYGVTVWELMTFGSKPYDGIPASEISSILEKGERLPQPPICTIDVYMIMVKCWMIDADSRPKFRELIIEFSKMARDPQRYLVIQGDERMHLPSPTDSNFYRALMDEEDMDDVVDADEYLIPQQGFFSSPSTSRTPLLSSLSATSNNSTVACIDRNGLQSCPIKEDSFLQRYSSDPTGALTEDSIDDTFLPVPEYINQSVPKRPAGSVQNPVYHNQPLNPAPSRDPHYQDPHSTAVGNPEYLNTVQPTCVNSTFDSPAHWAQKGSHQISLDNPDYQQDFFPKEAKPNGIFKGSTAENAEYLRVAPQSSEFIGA

Cc1c(C)c2c(c(C)c1O)CCC(C)(CN1CCN(c3cc(N4CCCC4)nc(N4CCCC4)n3)CC1)O2 (centres undefined)
IC50 ([1]; insect cells): Not Active
IC50 ([2]; read-out: IC50): 26.7 µM
Ki [2]: 13.1 µM
IC50 ([3]; read-out: IC50): 17.3 µM
Ki ([3]; read-out: Ki): 15.1 µM
IC50 [4]: Not Active
IC50 ([5]; platelet): Not Active
IC50 ([6]; read-out: IC50): 13.4 µM
Ki [6]: 10.6 µM

COc1ccc(CCN(C)CCCC(C#N)(c2ccc(OC)c(OC)c2)C(C)C)cc1OC (centres undefined)
IC50 ([1]; insect cells): Not Active
IC50 ([2]; hek293): Not Active
IC50 ([3]; hek293): Not Active
IC50 [4]: Not Active
IC50 ([5]; platelet): Not Active
IC50 ([6]; cho-k1): Not Active

CC(C)Cc1ccc([C@@H](C)C(=O)O)cc1 [(R)-IBUPROPHEN]
IC50 ([1]; insect cells): Not Active
IC50 ([2]; hek293): Not Active
IC50 ([3]; hek293): Not Active
IC50 [4]: Not Active
IC50 ([5]; platelet): Not Active
IC50 ([6]; cho-k1): Not Active

CN(C)CCOC(c1ccccc1)c1ccccc1 [DIPHENHYDRAMINE]
IC50 ([1]; insect cells): Not Active
IC50 ([2]; hek293): Not Active
IC50 ([3]; hek293): Not Active
IC50 [4]: Not Active
IC50 ([5]; platelet): Not Active
IC50 ([6]; cho-k1): Not Active

Clc1ccc(COC(Cn2ccnc2)c2ccc(Cl)cc2Cl)cc1 (centres undefined) [ECONAZOLE]
IC50 ([1]; read-out: IC50): 32.4 µM
IC50 ([2]; read-out: IC50): 8.9 µM
Ki [2]: 4.37 µM
IC50 [4]: Not Active
IC50 ([5]; read-out: IC50): 0.029 µM

CCN(CC)CCOc1ccc(/C(=C(/Cl)c2ccccc2)c2ccccc2)cc1 [ENCLOMIPHENE]
IC50 ([1]; read-out: IC50): 1.05 µM
IC50 ([2]; hek293): Not Active
IC50 ([3]; hek293): Not Active
IC50 [4]: Not Active
IC50 ([5]; platelet): Not Active

Fc1ccc(C(c2ccc(F)cc2)N2CCN(C/C=C/c3ccccc3)CC2)cc1 [FLUNARIZINE]
IC50 ([1]; insect cells): Not Active
IC50 ([2]; read-out: IC50): 1.08 µM
Ki [2]: 0.533 µM
IC50 ([3]; hek293): Not Active
IC50 [4]: Not Active
IC50 ([5]; platelet): Not Active
IC50 ([6]; read-out: IC50): 0.584 µM
Ki [6]: 0.464 µM

CNCCC(Oc1ccc(C(F)(F)F)cc1)c1ccccc1 (centres undefined) [FLUOXETINE]
IC50 ([1]; insect cells): Not Active
IC50 ([2]; hek293): Not Active
IC50 ([3]; hek293): Not Active
IC50 [4]: Not Active
IC50 ([5]; platelet): Not Active
IC50 ([6]; cho-k1): Not Active

Cc1ccc(NC(=O)c2ccc(CN3CCN(C)CC3)cc2)cc1Nc1nccc(-c2cccnc2)n1 [IMATINIB]
IC50 ([2]; hek293): Not Active
IC50 ([3]; hek293): Not Active
IC50 [4]: Not Active
IC50 ([5]; read-out: IC50): 0.198 µM
IC50 ([6]; cho-k1): Not Active

CC(C)Oc1ccc2c(=O)c(-c3ccccc3)coc2c1 [IPRIFLAVONE]
IC50 ([1]; insect cells): Not Active
IC50 ([2]; hek293): Not Active
IC50 ([3]; hek293): Not Active
IC50 [4]: Not Active
IC50 ([5]; platelet): Not Active
IC50 ([6]; cho-k1): Not Active

CC(C)NCC(O)c1ccc(O)c(O)c1 (centres undefined) [ISOPROTERENOL]
IC50 ([1]; insect cells): Not Active
IC50 ([2]; hek293): Not Active
IC50 ([3]; hek293): Not Active
IC50 [4]: Not Active
IC50 ([5]; platelet): Not Active
IC50 ([6]; cho-k1): Not Active

CNC1(c2ccccc2Cl)CCCCC1=O (centres undefined) [KETAMINE]
IC50 ([1]; insect cells): Not Active
IC50 ([2]; hek293): Not Active
IC50 ([3]; hek293): Not Active
IC50 [4]: Not Active
IC50 ([5]; platelet): Not Active
IC50 ([6]; cho-k1): Not Active
